Results from publication PMC5394417, “Investigating the molecular mechanism of positive and negative allosteric modulators in the calcium-sensing receptor dimer” (Scientific Reports, 2017).
Values belong to the compound of their own block, whether it stands above or below them.

Key:
Format in all cases: cell-based
[1] = molecular target: T1, HA-E837A CaSR mutant (Rattus norvegicus, UniProt P48442, E837A); experiment: IP-One assay, HEK293T transiently transfected; conditions: for EC50 / pEC50 ± S.E.M. / Max ± S.E.M.: HA-E837A; for effect on the Ca^2+-induced response: E837A mutant
T1 construct: mGluR5 signal peptide (N); expressed in transfected cells; host or cells: HEK293T
T1 sequence (P48442 20-1079 E837A): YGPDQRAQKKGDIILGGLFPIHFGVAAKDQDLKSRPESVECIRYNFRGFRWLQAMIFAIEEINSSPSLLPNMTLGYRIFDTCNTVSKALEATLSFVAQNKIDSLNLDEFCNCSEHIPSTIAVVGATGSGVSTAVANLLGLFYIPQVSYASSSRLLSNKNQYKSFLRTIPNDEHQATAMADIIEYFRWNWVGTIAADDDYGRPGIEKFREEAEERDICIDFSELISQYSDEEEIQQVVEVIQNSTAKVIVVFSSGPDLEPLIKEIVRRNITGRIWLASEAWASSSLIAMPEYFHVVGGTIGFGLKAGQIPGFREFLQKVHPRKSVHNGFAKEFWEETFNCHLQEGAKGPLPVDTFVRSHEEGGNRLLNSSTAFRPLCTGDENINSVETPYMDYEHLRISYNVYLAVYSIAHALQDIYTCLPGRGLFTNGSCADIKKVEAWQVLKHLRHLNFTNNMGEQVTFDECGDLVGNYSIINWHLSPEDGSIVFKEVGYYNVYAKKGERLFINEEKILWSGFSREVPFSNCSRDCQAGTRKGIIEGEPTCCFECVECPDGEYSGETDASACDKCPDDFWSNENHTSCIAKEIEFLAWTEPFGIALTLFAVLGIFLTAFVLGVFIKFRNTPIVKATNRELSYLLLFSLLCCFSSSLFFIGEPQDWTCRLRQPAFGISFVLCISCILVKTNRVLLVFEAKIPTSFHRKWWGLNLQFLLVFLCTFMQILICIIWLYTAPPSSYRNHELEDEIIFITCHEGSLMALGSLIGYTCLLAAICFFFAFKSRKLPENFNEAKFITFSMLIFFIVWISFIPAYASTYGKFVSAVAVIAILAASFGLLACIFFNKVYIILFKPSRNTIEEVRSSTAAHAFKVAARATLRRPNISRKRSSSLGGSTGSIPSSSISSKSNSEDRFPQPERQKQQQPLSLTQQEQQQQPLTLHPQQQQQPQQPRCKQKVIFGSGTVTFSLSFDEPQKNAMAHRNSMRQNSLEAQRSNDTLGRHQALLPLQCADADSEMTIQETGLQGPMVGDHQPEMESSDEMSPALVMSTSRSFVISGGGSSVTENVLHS
Procedure: (§1) Human embryonic kidney (HEK) 293T cells were cultured in DMEM supplemented with 10% dFBS and 1% P/S at 37 °C and 5% CO2. 48 h prior to assay, transient transfection was performed using Lipofectamine 2000 as the transfection reagent. White opaque 96-well culture plates (PerkinElmer, Waltham, MA, USA) were used for the ELISA and the TR-FRET dimerization assay, while clear tissue culture treated 96-well plates (Corning, Corning, NY, USA) were used for the IP-One assay. Both plate types were coated with poly-D-lysine before addition of cells and transfection mix. 0.25 μl/well of Lipofectamine 2000 were diluted in 25 μl/well of Opti-MEM and incubated at room temperature (RT) for 5 min. 0.03 μg/well of DNA was diluted in 25 μl/well of Opti-MEM, and subsequently mixed with the Lipofectamine 2000 dilution and incubated 20 min at RT before addition to the plates. Cell suspensions of 170.000 HEK293T cells/mL were prepared in complete growth medium and 100 μl/well (17.000 cells/well) was added to the plates, which were incubated for 48 h at 37 °C and 5% CO2 before performing assays.
(§2) Functional activity was measured using the IP-One assay, which is an IP1 accumulation assay. For agonist testing, ligands were prepared in final concentrations in ligand buffer (HBSS, 20 mM HEPES, pH 7.4 supplemented with 20 mM LiCl). Cells were washed once with 100 μl/well of assay buffer (HBSS, 20 mM HEPES, pH 7.4) and 50 μl/well of agonist solution was added after which plates were incubated at 37 °C for 30 min. Subsequently, ligand solutions were removed and cells were washed with 100 μl/well of assay buffer. Cell lysis was performed by addition of 30 μl/well of IP-One Conjugate & Lysis Buffer (Cisbio Bioassays, Codolet, France) and plates were incubated at RT for 30 min. Afterwards, 30 μl/well of assay buffer was added to dilute the cell lysate. 10 μl/well of cell lysate was transferred from the 96-well plate to a 384-well Optiplate and 10 μl/well of detection solution (Assay buffer + 2.5% of anti-IP1 antibody cryptate Terbium conjugate + 2.5% IP1-d2 conjugate (Cisbio Bioassays, Codolet, France)) was also added. The 384-well plate was incubated for 1 h at RT in dark before being measured on an EnVision plate reader (PerkinElmer, Waltham, MA, USA). Upon excitation at 340 nm, emission at 615 nm and 665 nm was measured, and the FRET ratio (665 nm/615 nm) was converted to IP1 concentrations by interpolating values from an IP1 standard curve generated from a provided IP1 calibrator (Cisbio Bioassays, Codolet, France). When testing allosteric modulators, cells were pre-incubated for 30 min at 37 °C with 50 μl/well of ligand buffer supplemented with allosteric modulator and a final concentration of 1% DMSO. Afterwards, the buffer solution was removed and 50 μl/well of agonist solution in ligand buffer supplemented with allosteric modulator and a final concentration of 1% DMSO was added. Plates were incubated for 30 min at 37 °C followed by one wash in 100 μl/well of assay buffer. Cell lysis and detection was performed as described above.

[2] = molecular target: T2, S170A:F801A/E837A heterodimer (Rattus norvegicus, UniProt P48442, E837A/F801A/S170A); experiment: IP-One trans-activation assay, co-expression 1:1 in HEK293T
T2 construct: mGluR5 signal peptide (N); expressed in transfected cells; host or cells: HEK293T
T2 sequence (P48442 20-1079 S170A): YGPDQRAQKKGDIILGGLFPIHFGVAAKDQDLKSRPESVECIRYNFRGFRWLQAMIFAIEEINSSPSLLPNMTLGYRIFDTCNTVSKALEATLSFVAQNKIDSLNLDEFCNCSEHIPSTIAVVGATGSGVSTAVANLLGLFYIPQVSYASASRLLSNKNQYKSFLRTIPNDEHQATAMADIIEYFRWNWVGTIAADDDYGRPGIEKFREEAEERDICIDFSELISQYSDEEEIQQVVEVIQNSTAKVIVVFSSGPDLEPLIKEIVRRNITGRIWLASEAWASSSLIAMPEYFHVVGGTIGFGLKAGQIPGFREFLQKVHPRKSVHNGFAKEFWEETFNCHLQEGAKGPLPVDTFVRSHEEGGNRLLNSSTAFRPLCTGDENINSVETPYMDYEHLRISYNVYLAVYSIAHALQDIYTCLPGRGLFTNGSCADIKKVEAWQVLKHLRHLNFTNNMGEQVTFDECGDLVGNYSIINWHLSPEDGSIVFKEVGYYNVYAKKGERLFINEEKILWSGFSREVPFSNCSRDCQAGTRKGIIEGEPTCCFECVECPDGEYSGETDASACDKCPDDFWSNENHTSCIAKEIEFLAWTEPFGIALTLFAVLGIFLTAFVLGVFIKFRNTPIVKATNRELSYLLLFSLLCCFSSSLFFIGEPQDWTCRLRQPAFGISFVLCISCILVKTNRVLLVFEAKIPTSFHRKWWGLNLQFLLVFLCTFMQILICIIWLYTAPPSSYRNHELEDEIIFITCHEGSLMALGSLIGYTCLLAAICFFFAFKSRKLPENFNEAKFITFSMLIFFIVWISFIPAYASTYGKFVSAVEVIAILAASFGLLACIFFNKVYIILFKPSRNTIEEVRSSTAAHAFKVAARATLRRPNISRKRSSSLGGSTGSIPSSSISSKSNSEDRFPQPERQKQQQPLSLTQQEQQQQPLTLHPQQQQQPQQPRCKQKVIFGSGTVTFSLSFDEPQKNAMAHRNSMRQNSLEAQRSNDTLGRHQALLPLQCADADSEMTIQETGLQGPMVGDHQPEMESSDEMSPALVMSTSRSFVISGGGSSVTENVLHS
T2 sequence (P48442 20-1079 F801A/E837A): as the sequence (P48442 20-1079 S170A) above, with A151S, F782A, E818A counted along it
Procedure: as §1, §2

[3] = molecular target: T3, S170A/E837A:F801A/E837A heterodimer (Rattus norvegicus, UniProt P48442, E837A/F801A/S170A); experiment: as above
T3 construct: mGluR5 signal peptide (N); expressed in transfected cells; host or cells: HEK293T
T3 sequence (P48442 20-1079 S170A/E837A): as the sequence (P48442 20-1079 S170A) above, with E818A counted along it
T3 sequence (P48442 20-1079 F801A/E837A): as the sequence (P48442 20-1079 S170A) above, with A151S, F782A, E818A counted along it
Procedure: as §1, §2

EC50 ([1]; Ca^2+ alone): 3.4 mM | pEC50 ± S.E.M. ([1]; Ca^2+ alone): 2.47 ± 0.01 | Max ± S.E.M. ([1]; Ca^2+ alone, normalized to maximum response of WT CaSR): 87 ± 16% | EC50 ([1]; Ca^2+ with 1 μM NPS R-568): 3.88 mM | pEC50 ± S.E.M. ([1]; Ca^2+ with 1 μM NPS R-568): 2.41 ± 0.04 | Max ± S.E.M. ([1]; Ca^2+ with 1 μM NPS R-568, normalized to maximum response with Ca^2+ alone for the construct): 100 ± 5% | EC50 ([1]; Ca^2+ with 5 μM NPS 2143): 3.46 mM | pEC50 ± S.E.M. ([1]; Ca^2+ with 5 μM NPS 2143): 2.46 ± 0.02 | Max ± S.E.M. ([1]; Ca^2+ with 5 μM NPS 2143, normalized to maximum response with Ca^2+ alone for the construct): 91 ± 5.7%
SMILES: [Ca+2] [Ca^2+]

inhibition of Ca^2+-mediated response ([2]; S170A:F801A/E837A heterodimer, 5 μM NPS 2143): full inhibition | inhibition of Ca^2+-mediated response ([3]; S170A/E837A:F801A/E837A heterodimer, 0.2, 1 and 5 μM NPS 2143): not subjected to inhibition
SMILES: CC(C)(Cc1ccc2ccccc2c1)NC[C@@H](O)COc1cccc(Cl)c1C#N.Cl [NPS 2143, NPS 2143 hydrochloride]
effect on the Ca^2+-induced response ([1]; 5 μM NPS 2143): neither NPS R-568 nor NPS 2143 had any significant effect

potentiation of Ca^2+-mediated response ([2]; S170A:F801A/E837A heterodimer, 0.05, 0.1 and 1 μM NPS R-568): potentiated | potentiation of Ca^2+-mediated response ([3]; S170A/E837A:F801A/E837A heterodimer, 0.05, 0.1 and 1 μM NPS R-568): not potentiated
SMILES: COc1cccc([C@@H](C)NCCCc2ccccc2Cl)c1.Cl [NPS R-568, NPS R-568 hydrochloride]
effect on the Ca^2+-induced response ([1]; 1 μM NPS R-568): neither NPS R-568 nor NPS 2143 had any significant effect
